Key:
[1] = Tmax in Sprague-Dawley rat at 10 mg/kg, po administered as single dose measured upto 24 hrs by LC-MS/MS analysis; type: ADME, organism-based; conditions: in vivo
[2] = AUC (0 to t) in Sprague-Dawley rat at 10 mg/kg, po administered as single dose measured upto 24 hrs by LC-MS/MS analysis; type: ADME, organism-based; parameters: time < 24 hrs, dose 10 mg/kg, route po; conditions: in vivo
[3] = AUC (0 to infinity) in Sprague-Dawley rat at 10 mg/kg, po administered as single dose measured upto 24 hrs by LC-MS/MS analysis; type: ADME, organism-based; parameters: dose 10 mg/kg, time < 24 hrs, route po; conditions: in vivo
[4] = MRT (0 to t) in Sprague-Dawley rat at 10 mg/kg, iv administered as single dose measured upto 24 hrs by LC-MS/MS analysis; type: ADME, organism-based; conditions: in vivo
[5] = Clearance in Sprague-Dawley rat at 10 mg/kg, iv administered as single dose measured upto 24 hrs by LC-MS/MS analysis; type: ADME, organism-based; conditions: in vivo
[6] = Tmax in Beagle dog at 5 mg/kg, po administered as single dose measured upto 24 hrs by LC-MS/MS analysis; type: ADME, organism-based, Canis lupus familiaris; conditions: in vivo
[7] = Cmax in Beagle dog at 5 mg/kg, po administered as single dose measured upto 24 hrs by LC-MS/MS analysis; type: ADME, organism-based, Canis lupus familiaris; parameters: time < 24 hrs, dose 5 mg/kg, route po; conditions: in vivo
[8] = Elimination half life in Beagle dog at 5 mg/kg, po administered as single dose measured upto 24 hrs by LC-MS/MS analysis; type: ADME, organism-based, Canis lupus familiaris; conditions: in vivo, read-out: beta t1/2 (converted)
[9] = AUC (0 to infinity) in Beagle dog at 5 mg/kg, po administered as single dose measured upto 24 hrs by LC-MS/MS analysis; type: ADME, organism-based, Canis lupus familiaris; parameters: time < 24 hrs, dose 5 mg/kg, route po; conditions: in vivo
[10] = AUC (0 to t) in Beagle dog at 1 mg/kg, iv administered as single dose measured upto 24 hrs by LC-MS/MS analysis; type: ADME, organism-based, Canis lupus familiaris; parameters: dose 1 mg/kg, time < 24 hrs, route iv; conditions: in vivo
[11] = AUC (0 to infinity) in Beagle dog at 1 mg/kg, iv administered as single dose measured upto 24 hrs by LC-MS/MS analysis; type: ADME, organism-based, Canis lupus familiaris; parameters: time < 24 hrs, dose 1 mg/kg, route iv; conditions: in vivo
[12] = Metabolic stability in dog hepatocyte assessed as parent compound remaining at 10 uM measured after 4 hrs by LC-MS/MS analysis; type: ADME, cell-based, Canis lupus familiaris; conditions: hepatocytes, read-out: Stability
[13] = Metabolic stability in monkey hepatocyte assessed as parent compound remaining at 10 uM measured after 4 hrs by LC-MS/MS analysis; type: ADME, cell-based, Macaca mulatta; conditions: rhesus monkey, hepatocytes, read-out: Stability
[14] = Metabolic stability in human hepatocyte assessed as parent compound remaining at 10 uM measured after 4 hrs by LC-MS/MS analysis; type: ADME, cell-based; conditions: hepatocytes, read-out: Stability
[15] = Drug metabolism in mouse hepatocytes assessed as glycine conjugation metabolite at 10 uM measured upto 240 mins by LC-MS/MS analysis; type: ADME, cell-based, Hepatocyte; conditions: 4 h
[16] = Drug metabolism in mouse hepatocytes assessed as oxidation/hydrogenation/decarboxylation metabolite at 10 uM measured upto 240 mins by LC-MS/MS analysis; type: ADME, cell-based, Hepatocyte; conditions: 4 h
[17] = Drug metabolism in dog hepatocytes assessed as glucuronidation metabolite at 10 uM measured upto 240 mins by LC-MS/MS analysis; type: ADME, cell-based, Canis lupus familiaris, Hepatocyte; conditions: 4 h
[18] = Drug metabolism in dog hepatocytes assessed as glycine conjugation metabolite at 10 uM measured upto 240 mins by LC-MS/MS analysis; type: ADME, cell-based, Canis lupus familiaris, Hepatocyte; conditions: 4 h
[19] = Drug metabolism in human hepatocytes assessed as oxidation/hydrogenation/decarboxylation metabolite at 10 uM measured upto 240 mins by LC-MS/MS analysis; type: ADME, cell-based, Hepatocyte; conditions: 4 h
Cytochrome P450 2C9 = Cytochrome P450 2C9 (Homo sapiens, UniProt P11712); test: Time dependent inhibition of CYP2C9 in human liver microsomes at 10 uM preincubated for 30 mins followed by substrate addition and measured after 15 mins in presence of NADPH by LC-MS/MS analysis; type: ADME, Microsome
Sequence of Cytochrome P450 2C9 (P11712 whole entry): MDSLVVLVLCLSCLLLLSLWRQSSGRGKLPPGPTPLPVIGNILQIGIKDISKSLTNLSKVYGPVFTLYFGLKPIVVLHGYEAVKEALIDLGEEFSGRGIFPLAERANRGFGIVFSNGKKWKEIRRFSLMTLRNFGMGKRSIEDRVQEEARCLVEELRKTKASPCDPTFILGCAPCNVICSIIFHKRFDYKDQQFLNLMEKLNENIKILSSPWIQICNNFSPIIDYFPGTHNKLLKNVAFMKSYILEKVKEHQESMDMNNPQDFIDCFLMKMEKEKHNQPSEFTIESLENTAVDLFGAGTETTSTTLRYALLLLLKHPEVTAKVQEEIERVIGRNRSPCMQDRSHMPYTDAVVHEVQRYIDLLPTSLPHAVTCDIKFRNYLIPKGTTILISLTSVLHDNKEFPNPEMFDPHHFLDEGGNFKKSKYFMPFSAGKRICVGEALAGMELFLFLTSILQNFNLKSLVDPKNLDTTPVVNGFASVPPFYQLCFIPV

Cytochrome P450 3A4 = Cytochrome P450 3A4 (Homo sapiens, UniProt P08684)
Sequence of Cytochrome P450 3A4 (P08684 whole entry): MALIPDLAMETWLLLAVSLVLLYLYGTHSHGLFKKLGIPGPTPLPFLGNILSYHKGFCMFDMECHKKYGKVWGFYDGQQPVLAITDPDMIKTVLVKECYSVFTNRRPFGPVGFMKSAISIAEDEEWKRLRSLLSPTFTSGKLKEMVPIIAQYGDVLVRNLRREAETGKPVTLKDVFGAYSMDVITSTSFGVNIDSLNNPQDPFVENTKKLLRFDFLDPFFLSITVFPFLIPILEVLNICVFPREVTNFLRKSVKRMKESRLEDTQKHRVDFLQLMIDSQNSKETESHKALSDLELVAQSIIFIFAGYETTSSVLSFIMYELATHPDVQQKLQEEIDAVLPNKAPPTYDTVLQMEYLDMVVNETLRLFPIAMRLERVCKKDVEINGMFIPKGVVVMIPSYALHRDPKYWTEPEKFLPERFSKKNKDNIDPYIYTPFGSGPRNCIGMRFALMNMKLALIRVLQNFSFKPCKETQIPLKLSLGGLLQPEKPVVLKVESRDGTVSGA

Cytochrome P450 1A2 = target: T1, Cytochrome P450 1A2 (Homo sapiens, UniProt P05177)
T1 sequence (P05177 whole entry): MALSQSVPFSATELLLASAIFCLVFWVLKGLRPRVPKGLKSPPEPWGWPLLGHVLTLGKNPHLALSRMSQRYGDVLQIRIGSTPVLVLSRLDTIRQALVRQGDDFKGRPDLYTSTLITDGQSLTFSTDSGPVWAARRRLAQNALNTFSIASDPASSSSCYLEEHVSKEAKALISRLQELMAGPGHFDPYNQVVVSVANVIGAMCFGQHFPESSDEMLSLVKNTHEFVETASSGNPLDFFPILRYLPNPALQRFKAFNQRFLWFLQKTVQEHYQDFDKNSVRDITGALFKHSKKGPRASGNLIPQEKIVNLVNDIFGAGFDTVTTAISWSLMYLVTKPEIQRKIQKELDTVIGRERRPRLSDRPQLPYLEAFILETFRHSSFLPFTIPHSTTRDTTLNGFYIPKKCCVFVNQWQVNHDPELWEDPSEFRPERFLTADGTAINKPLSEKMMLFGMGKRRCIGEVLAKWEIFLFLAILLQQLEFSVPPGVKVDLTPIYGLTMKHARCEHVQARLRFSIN

Cytochrome P450 2C19 = Cytochrome P450 2C19 (Homo sapiens, UniProt P33261)
Sequence of Cytochrome P450 2C19 (P33261 whole entry): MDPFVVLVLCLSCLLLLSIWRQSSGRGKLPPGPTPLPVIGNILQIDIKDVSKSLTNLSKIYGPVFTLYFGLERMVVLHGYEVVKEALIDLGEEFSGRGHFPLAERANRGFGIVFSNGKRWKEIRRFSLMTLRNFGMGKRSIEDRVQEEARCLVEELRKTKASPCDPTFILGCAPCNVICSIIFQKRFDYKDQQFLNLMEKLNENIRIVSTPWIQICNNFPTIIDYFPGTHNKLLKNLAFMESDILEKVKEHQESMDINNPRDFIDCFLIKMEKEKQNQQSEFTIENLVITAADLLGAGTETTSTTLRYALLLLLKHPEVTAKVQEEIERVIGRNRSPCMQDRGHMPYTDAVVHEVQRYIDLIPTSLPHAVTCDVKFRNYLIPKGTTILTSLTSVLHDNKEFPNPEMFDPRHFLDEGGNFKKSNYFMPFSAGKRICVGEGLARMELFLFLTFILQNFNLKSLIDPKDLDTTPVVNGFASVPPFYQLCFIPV

Cytochrome P450 2D6 = Cytochrome P450 2D6 (Homo sapiens, UniProt P10635)
Sequence of Cytochrome P450 2D6 (P10635 whole entry): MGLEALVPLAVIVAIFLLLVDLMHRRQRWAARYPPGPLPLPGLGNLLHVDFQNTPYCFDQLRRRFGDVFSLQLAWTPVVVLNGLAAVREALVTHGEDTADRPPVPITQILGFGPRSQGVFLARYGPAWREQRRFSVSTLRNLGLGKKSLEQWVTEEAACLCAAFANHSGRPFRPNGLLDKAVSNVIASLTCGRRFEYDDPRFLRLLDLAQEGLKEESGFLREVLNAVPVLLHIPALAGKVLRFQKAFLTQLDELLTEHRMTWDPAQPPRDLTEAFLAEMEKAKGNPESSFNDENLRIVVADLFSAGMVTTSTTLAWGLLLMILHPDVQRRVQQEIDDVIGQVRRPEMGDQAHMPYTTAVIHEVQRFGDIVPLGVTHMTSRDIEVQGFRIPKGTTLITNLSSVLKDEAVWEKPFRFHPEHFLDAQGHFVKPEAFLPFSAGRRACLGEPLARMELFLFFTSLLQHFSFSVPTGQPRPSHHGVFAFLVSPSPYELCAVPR

in vivo [20] = conditions: Sprague-Dawley, rat, liver, po, 10 mg/kg
in vivo [21] = conditions: Sprague-Dawley, rat, heart, po, 10 mg/kg
in vivo [22] = conditions: Sprague-Dawley, rat, plasma, po, 10 mg/kg
in vivo [23] = conditions: Sprague-Dawley, rat, kidney, po, 10 mg/kg
in vivo [24] = conditions: Sprague-Dawley, rat, kidney/plasma, po, 10 mg/kg
in vitro [25] = conditions: mouse, liver microsomes
in vitro [26] = conditions: rat, liver microsomes
in vitro [27] = conditions: rhesus monkey, liver microsomes
in vitro [28] = conditions: rat, hepatocytes
in vitro [29] = conditions: dog, hepatocytes
in vitro [30] = conditions: rhesus monkey, hepatocytes
in vitro [31] = conditions: human, hepatocytes
in vitro [32] = conditions: rat, plasma
in vitro [33] = conditions: human, plasma
in vitro [34] = conditions: human, primary hepatocytes

## C[C@H]1CCN1c1nc(N2CC[C@H](CCC(=O)O)C2)c2c(n1)C(F)(F)CC2
[1]
  Tmax: 2.33 h
[2]
  AUCt: 39900 ng·h/mL
[3]
  AUC: 44400 ng·h/mL
[4]
  MRT last at 24 h: 6.09 h
[5]
  clearance: 2.52 mL/min/kg
[6]
  Tmax: 45 min
[7]
  Cmax: 10100 ng/mL
[8]
  half-life: 313 min
[9]
  AUC: 34100 ng·h/mL
[10]
  AUCt: 5440 ng·h/mL
[11]
  AUC: 5580 ng·h/mL
[12]
  remaining at 4 h, 10 µM: 97.8%
[13]
  remaining at 4 h, 10 µM: 95.8%
[14]
  remaining at 4 h, 10 µM: 98.5%
[15]
  Drug metabolism: Metabolite_Notdetected
[16]
  Drug metabolism: Metabolite_Notdetected
[17]
  Drug metabolism: Metabolite_Notdetected
[18]
  Drug metabolism: Metabolite_Notdetected
[19]
  Drug metabolism: Metabolite_Notdetected
Cytochrome P450 2C9
  IC50: > 10 µM
Cytochrome P450 3A4
  IC50: > 30 µM
Cytochrome P450 1A2
  IC50: > 30 µM
Cytochrome P450 2C19
  IC50: > 30 µM
Cytochrome P450 2D6
  IC50: > 30 µM
In vivo [20]
  concentration at 24 h: 50100 ng/g
In vivo [21]
  concentration at 24 h: 1490 ng/g
In vivo [22]
  concentration at 24 h: 5080 ng/mL
In vivo [23]
  concentration at 24 h: 11000 ng/g
In vivo [24]
  Kp at 24 h: 2.2
physchem
  solubility kinetic: > 1000 µM
In vitro [25]
  microsomal CLint at 2 h, 1 µM: 8 µL/min/mg
In vitro [26]
  microsomal CLint at 2 h, 1 µM: < 6.4 µL/min/mg
In vitro [27]
  microsomal CLint at 2 h, 1 µM: 10.2 µL/min/mg
In vitro [28]
  hepatocyte CLint at 2 h, 1 µM: < 0.96 µL/min/1e6 cells
In vitro [29]
  hepatocyte CLint at 2 h, 1 µM: < 0.96 µL/min/1e6 cells
In vitro [30]
  hepatocyte CLint at 2 h, 1 µM: < 0.96 µL/min/1e6 cells
In vitro [31]
  hepatocyte CLint at 2 h, 1 µM: < 0.96 µL/min/1e6 cells
In vitro [32]
  fraction unbound: 0.025
In vitro [33]
  fraction unbound: 0.089
In vitro [34]
  IC50 at 48 h: > 150 µM

— ChEMBL document CHEMBL5365534, “Discovery of a Novel Ketohexokinase Inhibitor with Improved Drug Distribution in Target Tissue for the Treatment of Fructose Metabolic Disease” (J Med Chem, 2023)
